Laboratory results as given in PubChem BioAssay (NCI).
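In this assay, cells in 96-well plates receive the compound at five concentrations for 48 hours. Endpoints are linearly interpolated between the surrounding concentrations. TGI: total growth inhibition.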

Experiments:
Assay in all cases: NCI tumour cell line growth inhibition, 48 h
786-0 renal = system: 786-0 renal
A498 renal = system: A498 renal
A549 NSCLC = system: A549 NSCLC
ACHN renal = system: ACHN renal
CAKI-1 renal = system: CAKI-1 renal
CCRF-CEM leukemia = system: CCRF-CEM leukemia
COLO 205 colon = system: COLO 205 colon
DLD-1 colon = system: DLD-1 colon
DMS 114 small cell lung = system: DMS 114 small cell lung
DMS 273 small cell lung = system: DMS 273 small cell lung
EKVX NSCLC = system: EKVX NSCLC
HCC-2998 colon = system: HCC-2998 colon
HCT-116 colon = system: HCT-116 colon
HCT-15 colon = system: HCT-15 colon
HL-60(TB) leukemia = system: HL-60(TB) leukemia
HOP-18 NSCLC = system: HOP-18 NSCLC
HOP-62 NSCLC = system: HOP-62 NSCLC
HOP-92 NSCLC = system: HOP-92 NSCLC
HT29 colon = system: HT29 colon
IGROV1 ovarian = system: IGROV1 ovarian
K-562 leukemia = system: K-562 leukemia
KM12 colon = system: KM12 colon
KM20L2 colon = system: KM20L2 colon
LOX IMVI melanoma = system: LOX IMVI melanoma
LXFL 529 NSCLC = system: LXFL 529 NSCLC
M14 melanoma = system: M14 melanoma
M19-MEL melanoma = system: M19-MEL melanoma
MALME-3M melanoma = system: MALME-3M melanoma
MOLT-4 leukemia = system: MOLT-4 leukemia
NCI-H226 lung = system: NCI-H226 lung
NCI-H23 lung = system: NCI-H23 lung
NCI-H460 lung = system: NCI-H460 lung
NCI-H522 lung = system: NCI-H522 lung
OVCAR-3 ovarian = system: OVCAR-3 ovarian
OVCAR-5 ovarian = system: OVCAR-5 ovarian
OVCAR-8 ovarian = system: OVCAR-8 ovarian
RPMI-8226 leukemia = system: RPMI-8226 leukemia
RXF 393 renal = system: RXF 393 renal
RXF-631 renal = system: RXF-631 renal
SF-268 CNS = system: SF-268 CNS
SF-295 CNS = system: SF-295 CNS
SK-MEL-2 melanoma = system: SK-MEL-2 melanoma
SK-MEL-28 melanoma = system: SK-MEL-28 melanoma
SK-MEL-5 melanoma = system: SK-MEL-5 melanoma
SK-OV-3 ovarian = system: SK-OV-3 ovarian
SN12C renal = system: SN12C renal
SNB-19 CNS = system: SNB-19 CNS
SNB-75 CNS = system: SNB-75 CNS
SNB-78 CNS = system: SNB-78 CNS
SR leukemia = system: SR leukemia
SW-620 colon = system: SW-620 colon
TK-10 renal = system: TK-10 renal
U251 CNS = system: U251 CNS
UACC-257 melanoma = system: UACC-257 melanoma
UACC-62 melanoma = system: UACC-62 melanoma
UO-31 renal = system: UO-31 renal
XF 498 CNS = system: XF 498 CNS

CCSc1nnc(CSc2nc(-c3ccccc3)c(-c3ccccc3)[nH]2)n1-c1ccccc1
TGI (786-0 renal): 45.7 µM | TGI (A498 renal): 34.6 µM | TGI (A549 NSCLC): 80.9 µM | TGI (ACHN renal): 33.4 µM | TGI (CAKI-1 renal): 63.7 µM | TGI (CCRF-CEM leukemia): 49.4 µM | TGI (COLO 205 colon): 29.5 µM | TGI (DLD-1 colon): 37 µM | TGI (DMS 114 small cell lung): 39.1 µM | TGI (DMS 273 small cell lung): 66.3 µM | TGI (EKVX NSCLC): 63.5 µM | TGI (HCC-2998 colon): 36.5 µM | TGI (HCT-116 colon): 36.2 µM | TGI (HCT-15 colon): 36 µM | TGI (HL-60(TB) leukemia): 45.5 µM | TGI (HOP-18 NSCLC): 30.4 µM | TGI (HOP-62 NSCLC): 35.2 µM | TGI (HOP-92 NSCLC): 38.5 µM | TGI (HT29 colon): 35.4 µM | TGI (IGROV1 ovarian): 42.3 µM | TGI (K-562 leukemia): 56.3 µM | TGI (KM12 colon): 32.1 µM | TGI (KM20L2 colon): 32.1 µM | TGI (LOX IMVI melanoma): 43.8 µM | TGI (LXFL 529 NSCLC): 67 µM | TGI (M14 melanoma): 34.9 µM | TGI (M19-MEL melanoma): 33.3 µM | TGI (MALME-3M melanoma): 44.2 µM | TGI (MOLT-4 leukemia): 40 µM | TGI (NCI-H226 lung): 27.7 µM | TGI (NCI-H23 lung): 40.8 µM | TGI (NCI-H460 lung): 36.9 µM | TGI (NCI-H522 lung): 30.5 µM | TGI (OVCAR-3 ovarian): 35.2 µM | TGI (OVCAR-5 ovarian): 30.4 µM | TGI (OVCAR-8 ovarian): 51.9 µM | TGI (RPMI-8226 leukemia): 46.1 µM | TGI (RXF 393 renal): 43.5 µM | TGI (RXF-631 renal): 63.3 µM | TGI (SF-268 CNS): 43.3 µM | TGI (SF-295 CNS): 44.7 µM | TGI (SK-MEL-2 melanoma): 45.6 µM | TGI (SK-MEL-28 melanoma): 37 µM | TGI (SK-MEL-5 melanoma): 30.9 µM | TGI (SK-OV-3 ovarian): 60.8 µM | TGI (SN12C renal): 29.7 µM | TGI (SNB-19 CNS): 34.2 µM | TGI (SNB-75 CNS): 42.9 µM | TGI (SNB-78 CNS): > 100 µM | TGI (SR leukemia): 48.5 µM | TGI (SW-620 colon): 30.2 µM | TGI (TK-10 renal): 57.1 µM | TGI (U251 CNS): 31.7 µM | TGI (UACC-257 melanoma): 33.6 µM | TGI (UACC-62 melanoma): 30.2 µM | TGI (UO-31 renal): 33 µM | TGI (XF 498 CNS): 35.3 µM
